Measured values taken from patent publication US20220402908A1, “CXCR6 INHIBITORS AND METHODS OF USE” (Sanford Burnham Prebys Medical Discovery Institute, priority 2019, published 2022).

Tests used:
CXCR6 [1] = target: T1, CXCR6 (Homo sapiens, UniProt O00574); test: β-arrestin recruitment inhibition in CXCR6-expressing CHO-K1 cells (PathHunter, DiscoveRx); format: cell-based
Description: (§1) Compounds of Formula (I), (Ia), (Ib), (Ic), (Id), and (II) are tested for their ability to inhibit β-arrestin recruitment in CXCR6-expressing CHO-K1 cells using the β-galactosidase PathHunter Enzyme Complementation Platform from DiscoveRx. A detailed protocol for this assay is available on PubChem (AIDs 624129). Accordingly, 800 CHO-K1 cells expressing CXCR6 (DiscoveRx, Cat #93-0205C2) are seeded into the wells of a white opaque 1536-well plate, centrifuged, and incubated overnight at 37° C., 5% CO2. The next day, compounds of Formula (I), (Ia), (Ib), (Ic), (Id), and (II) and controls (CXCL16 (10 nM) or DMSO) are dispensed into wells and incubated for 1.5 h. The assay is terminated upon addition of lysis buffer, detection substrate, and enzyme. Luminescence is read on the Envision plate reader 1 h post-termination. All compounds are tested in a 10 pt dose-response curve in duplicate. Compounds will also be tested in a CXCR6-dependent cAMP assay using the Lance Ultra assay from PerkinElmer. Accordingly, 2 uL CXCR6-expressing cells are suspended in assay media (OptiMEM; 2% FBS; 1×P/S) and plated at 500 cells/well in 1536-well, white, TC plates and grown overnight at 37° C.; 5% CO2. 40 nL test compounds of Formula (I), (Ia), (Ib), (Ic), (Id), and (II) are added to cells using ECHO dispenser. 2 uL of 2.5 mM forskolin in stimulation buffer (HBSS; 5 mM HEPES; 0.1% BSA; 0.1 mM RO-20-1724) with or without 20 nM CXCL16 is transferred to wells using BioRAPTR. Wells treated with forskolin and CXCL16 serve as negative controls and wells treated with forskolin only serve as positive controls. Cells are incubated at room temperature for 30 min followed by addition of 2 uL each EU-cAMP tracer and ULight anti-cAMP Ab in detection buffer according to manufacturer's instruction. After 30 min at room temperature, TR-FRET is read using EnVision plate reader.

CXCR6 [2] = target: T1, CXCR6; test: CXCR6-dependent cAMP assay (Lance Ultra, PerkinElmer); format: cell-based; details: CXCR6-expressing cells, forskolin + CXCL16; Table B-1
Description: as §1

[3] = system: SK-Hep-1 cancer xenograft; test: SK-Hep-1 cancer xenograft tumor growth; format: in vivo; details: compared to control; FIG. 1 legend
[4] = CXCR6-expressing CHO-K1 cells, Table B-1, read-out: IC50 (β-arrestin)

T1 sequence (O00574 whole entry): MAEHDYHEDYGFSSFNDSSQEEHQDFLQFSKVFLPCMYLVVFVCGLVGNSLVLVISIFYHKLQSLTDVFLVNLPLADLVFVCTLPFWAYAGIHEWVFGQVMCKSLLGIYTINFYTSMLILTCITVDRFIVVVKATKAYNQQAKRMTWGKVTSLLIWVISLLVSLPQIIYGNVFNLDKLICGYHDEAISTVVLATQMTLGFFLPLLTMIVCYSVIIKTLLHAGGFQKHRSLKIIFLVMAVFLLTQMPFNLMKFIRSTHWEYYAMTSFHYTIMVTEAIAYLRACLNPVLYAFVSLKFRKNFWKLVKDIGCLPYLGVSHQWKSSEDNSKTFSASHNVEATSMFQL

Structure (SMILES)	IC50 (CXCR6 [1]) [µM]	IC50 (CXCR6 [2]) [µM]	IC50 (CXCR6 [1]; [4]) [µM]	other results
COc1cc(C(=O)N2C[C@H]3CCC[C@@H](C2)N3Cc2nc3c(C(F)(F)F)cccc3s2)cc(OC)c1OC [((1R,5S)-9-((4-(trifluoromethyl)benzo[d]thiazol-2-yl)methyl)-3,9-diazabicyclo[3.3.1]nonan-3-yl)(3,4,5-trimethoxyphenyl)methanone]	0.1 to 2	–	–	–
COc1cc(C(=O)N[C@@H]2C[C@H]3CCC[C@@H](C2)N3Cc2cc3ccccc3s2)cc(OC)c1OC [N-((1R,3s,5S)-9-(benzo[b]thiophen-2-ylmethyl)-9-azabicyclo[3.3.1]nonan-3-yl)-3,4,5-trimethoxybenzamide]	–	5 to 20	0.1 to 2	–
O=P1(N(CCCl)CCCl)NCCCO1 (stereo not drawn) [cyclophosphamide]	–	–	–	tumor growth, SK-Hep-1 cancer xenograft [3]: tumor growth reduction
CCC(C)Oc1ccc(C(=O)N[C@@H]2C[C@H]3CCC[C@@H](C2)N3Cc2nc3c(C(F)(F)F)cccc3s2)cc1OC (stereo partly drawn) [4-(sec-butoxy)-3-methoxy-N-((1R,3s,5S)-9-((4-(trifluoromethyl)benzo[d]thiazol-2-yl)methyl)-9-azabicyclo[3.3.1]nonan-3-yl)benzamide]	–	–	< 0.1	–
COc1cc(C(=O)N[C@@H]2C[C@H]3CCC[C@@H](C2)N3Cc2nc3c(Cl)c(Cl)ccc3s2)cc(OC)c1OC [N-((1R,3s,5S)-9-((4,5-dichlorobenzo[d]thiazol-2-yl)methyl)-9-azabicyclo[3.3.1]nonan-3-yl)-3,4,5-trimethoxybenzamide]	< 0.1	–	–	–
COc1cc(C(=O)N[C@@H]2C[C@H]3CCC[C@@H](C2)N3Cc2nc3c(C(F)(F)F)cccc3s2)cc(OC)c1OC [Compound 1, 3,4,5-trimethoxy-N-((1R,3s,5S)-9-((4-(trifluoromethyl)benzo[d]thiazol-2-yl)methyl)-9-azabicyclo[3.3.1]nonan-3-yl)benzamide]	< 0.1	–	–	–
COc1cc(C(=O)N[C@@H]2C[C@H]3CCC[C@@H](C2)N3Cc2nc3c(Cl)cccc3s2)cc(OC)c1OC [N-((1R,3s,5S)-9-((4-chlorobenzo[d]thiazol-2-yl)methyl)-9-azabicyclo[3.3.1]nonan-3-yl)-3,4,5-trimethoxybenzamide]	–	0.1 to 2	0.1 to 2	–
COc1cc(C(=O)N[C@@H]2C[C@H]3CCC[C@@H](C2)N3CC(=O)Nc2ccccc2Cl)cc(OC)c1OC [N-((1R,3s,5S)-9-(2-((2-chlorophenyl)amino)-2-oxoethyl)-9-azabicyclo[3.3.1]nonan-3-yl)-3,4,5-trimethoxybenzamide]	–	2 to 5	0.1 to 2	–
COc1cc(C(=O)N[C@@H]2C[C@H]3CCC[C@@H](C2)N3Cc2nc3c(C(F)(F)F)cccc3s2)ccc1OC(C)C [4-isopropoxy-3-methoxy-N-((1R,3s,5S)-9-((4-(trifluoromethyl)benzo[d]thiazol-2-yl)methyl)-9-azabicyclo[3.3.1]nonan-3-yl)benzamide]	0.1 to 2	–	–	–
